Reference: patent publication US8889699B2, “5-fluorouracil derivative” (Delta-Fly Pharma, Inc., priority 2009, dated 2014)
Read-outs that look alike come from different tables or passages of the source.

Target: T1, DPD (Rattus norvegicus, UniProt O89000)
T1 construct: the obtained supernatant was used as a DPD enzyme solution or an OPRT enzyme solution; from tissue; host or cells: liver of 8-week old SD rat; 105,000 g supernatant of homogenate
T1 sequence (O89000 1-1025): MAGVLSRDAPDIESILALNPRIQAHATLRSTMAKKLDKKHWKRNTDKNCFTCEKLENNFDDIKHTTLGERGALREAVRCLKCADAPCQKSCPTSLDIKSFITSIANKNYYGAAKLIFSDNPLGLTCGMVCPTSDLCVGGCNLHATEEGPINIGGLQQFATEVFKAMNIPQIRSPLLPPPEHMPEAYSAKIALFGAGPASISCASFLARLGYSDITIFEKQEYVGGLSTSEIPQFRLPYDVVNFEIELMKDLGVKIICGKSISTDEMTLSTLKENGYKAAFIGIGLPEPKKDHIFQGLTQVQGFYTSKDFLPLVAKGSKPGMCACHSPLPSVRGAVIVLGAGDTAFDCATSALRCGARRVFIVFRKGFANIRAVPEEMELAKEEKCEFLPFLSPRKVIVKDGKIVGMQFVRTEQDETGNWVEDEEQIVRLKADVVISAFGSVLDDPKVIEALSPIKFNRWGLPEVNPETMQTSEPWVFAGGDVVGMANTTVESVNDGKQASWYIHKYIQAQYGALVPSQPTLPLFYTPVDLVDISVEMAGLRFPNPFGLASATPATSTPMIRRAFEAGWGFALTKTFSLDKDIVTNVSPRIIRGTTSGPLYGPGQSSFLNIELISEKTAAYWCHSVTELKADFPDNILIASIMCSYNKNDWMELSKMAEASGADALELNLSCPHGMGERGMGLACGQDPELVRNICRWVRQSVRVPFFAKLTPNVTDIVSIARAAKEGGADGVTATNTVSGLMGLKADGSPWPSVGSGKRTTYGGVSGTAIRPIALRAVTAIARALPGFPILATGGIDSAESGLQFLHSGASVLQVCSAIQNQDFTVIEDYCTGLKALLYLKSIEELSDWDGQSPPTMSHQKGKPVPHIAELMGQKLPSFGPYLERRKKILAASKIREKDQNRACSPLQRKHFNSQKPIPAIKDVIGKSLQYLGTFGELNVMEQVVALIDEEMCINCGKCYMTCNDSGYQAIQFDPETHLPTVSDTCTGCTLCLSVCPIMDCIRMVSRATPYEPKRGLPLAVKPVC
Assay: DPD inhibitory action in vitro (enzyme reaction, tritium-labeled 5-FU as substrate)
Assay type: biochemical
Protocol: The resulting product was diluted to concentrations of 1 mM, 100 μM, 10 μM, and 1 μM with a 10 mM potassium phosphate buffer solution (pH 6.0), thereby obtaining Test Liquids 1. The obtained Test Liquids 1 were separately added to the enzyme reaction solution described below to give final concentrations of 200 μM, 20 μM, 2 μM, and 0.2 μM. • (b) Test liquid preparation (2): As a DPD inhibitor, 5-chloro-2,4-dihydroxypyridine (CDHP; gimeracil) was dissolved to a concentration of 10 mM in a 10 mM potassium phosphate buffer solution (pH 6.0). The resulting product was diluted to concentrations of 1 mM, 100 μM, 10 μM, and 1 μM, thereby obtaining Test Liquids 2. The obtained Test Liquids 2 were separately added to the enzyme reaction solution to give final concentrations of 200 μM, 20 μM, 2 μM, and 0.2 μM. • (c) Test liquid preparation (3): As an OPRT inhibitor, citrazinic acid (Citra. A.) was dissolved to a concentration of 10 mM in 20 mM trishydroxyaminomethane-hydrochloric buffer solution (pH 8.0). Thereafter, the resulting product was diluted to concentrations of 1 mM, 100 μM, and 10 μM with a 10 mM potassium phosphate buffer solution, thereby obtaining Test Liquids (3). The obtained Test Liquids 3 were separately added to the enzyme reaction solution to give final concentrations of 200 μM, 20 μM, and 2 μM. • (d) Preparation of enzyme solution: The liver of an 8-week old SD rat was used as a DPD enzyme source, while human tumor cells that had been transplanted into a nude mouse and proliferated therein were used as an OPRT enzyme source. Specifically, immediately after a rat liver or successively-transplanted human tumor cells were extracted, a 50-mM tris-hydrochloric acid buffer solution (pH 8.0) containing 0.25 M saccharose, 5 mM magnesium chloride, and 1 mM dithreitol was added thereto to a concentration of 25% (w/v) and homogenized. Thereafter, ultracentrifugation was performed at 105,000 g for 60 minutes, and the obtained supernatant was used as a DPD enzyme solution or an OPRT enzyme solution. • (e) Enzyme reaction: A DPD enzyme reaction was carried out in accordance with the method of Tatsumi et al. (Gann, 78: 748-755 (1987)) using 5-FU labeled with tritium as a substrate. An OPRT enzyme reaction was carried out in accordance with the method of Shirasaka et al. (Cancer Res., 53: 4004-4009 (1993)) using 5-FU labeled with tritium as a substrate. Then, the activity of a control group (with no test compound) and test compound groups was measured. The percent inhibition of the test compound relative to DPD or OPRT was calculated using the following formula: [1-(the enzyme activity with the test compound/the enzyme activity of the control group)]×100(%).
The resulting product was diluted to concentrations of 1 mM, 100 μM, 10 μM, and 1 μM with a 10 mM potassium phosphate buffer solution (pH 6.0), thereby obtaining Test Liquids 1. The obtained Test Liquids 1 were separately added to the enzyme reaction solution described below to give final concentrations of 200 μM, 20 μM, 2 μM, and 0.2 μM. • (b) Preparation of enzyme solution: The liver of an 8-week old SD rat was used as a DPD enzyme source, while human tumor cells that had been transplanted into a nude mouse and proliferated therein were used as an OPRT enzyme source. Specifically, immediately after a rat liver or successively-transplanted human tumor cells were extracted, a 50-mM tris-hydrochloric acid buffer solution (pH 8.0) containing 0.25 M saccharose, 5 mM magnesium chloride, and 1 mM dithreitol was added thereto to a concentration of 25% (w/v) and homogenized. Thereafter, ultracentrifugation was performed at 105,000 g for 60 minutes, and the obtained supernatant was used as a DPD enzyme solution or an OPRT enzyme solution. • (c) Enzyme reaction: A DPD enzyme reaction was carried out in accordance with the method of Tatsumi et al. (Gann, 78: 748-755 (1987)) using 5-FU labeled with tritium as a substrate. […]

[1] = 0.2 μM, Table 2, read-out: DPD Inhibition (%)
[2] = 2 μM, Table 2, read-out: DPD Inhibition (%)

`CCOCn1cc(F)c(=O)n(C(=O)c2cccc(C(=O)Oc3cc(OC(=O)c4cc(O)nc(O)c4)c(Cl)cn3)c2)c1=O` [Compound I-2, 3-{3-[4-(2,6-dihydroxyisonicotinoyloxy)-5-chloro-2-pyridyloxycarbonyl]benzoyl}-1-ethoxymethyl-5-fluorouracil] was tested, and the “DPD Inhibitory Activity: Activity” value (Conc. 0.2 μM, Table 1) was 0.613 nmol/mL/min, the inhibition at 0.2 µM (Conc. 0.2 μM, Table 1, read-out: DPD Inhibitory Activity: Inhibition) was 39.2% and the “DPD Inhibitory Activity: Activity” value (Conc. 2 μM, Table 1) was 0.157 nmol/mL/min. The inhibition at 2 µM (Conc. 2 μM, Table 1, read-out: DPD Inhibitory Activity: Inhibition) was 84.4%, the “DPD Inhibitory Activity: Activity” value (Conc. 20 μM, Table 1) was 0.075 nmol/mL/min and the inhibition at 20 µM (Conc. 20 μM, Table 1) was 92.6%. The “DPD Inhibitory Activity: Activity” value (Conc. 200 μM, Table 1) was 0.100 nmol/mL/min and the inhibition at 200 µM (Conc. 200 μM, Table 1) was 90%.
`CCOCn1cc(F)c(=O)n(C(=O)c2cccc(C(=O)Oc3cc(OC(=O)c4cc(OC(=O)C5CCCC5)nc(OC(=O)C5CCCC5)c4)c(Cl)cn3)c2)c1=O` [Compound I-9, 3-{3-[4-(2,6-dicyclopentanecarbonyloxyisonicotinoyloxy)-5-chloro-2-pyridyloxycarbonyl]benzoyl}-1-ethoxymethyl-5-fluorouracil] was tested, and the inhibition at 0.2 µM [1] was 45.7% and the inhibition at 2 µM [2] was 74.6%.
In the case of `CCOCn1cc(F)c(=O)n(C(=O)c2cccc(C(=O)Oc3cc(OC(=O)c4cc(OC(C)=O)nc(OC(C)=O)c4)c(Cl)cn3)c2)c1=O` [Compound I-10, 3-{3-[4-(2,6-diacetyloxyisonicotinoyloxy)-5-chloro-2-pyridyloxycarbonyl]benzoyl}-1-ethoxymethyl-5-fluorouracil], the inhibition at 0.2 µM [1] is reported as 43.9% and the inhibition at 2 µM [2] is reported as 77.2%.
With `CCOCn1cc(F)c(=O)n(C(=O)c2cccc(C(=O)Oc3cc(OC(=O)c4cc(OC(=O)CC)nc(OC(=O)CC)c4)c(Cl)cn3)c2)c1=O` [Compound I-11, 3-{3-[4-(2,6-dipropionyloxyisonicotinoyloxy)-5-chloro-2-pyridyloxycarbonyl]benzoyl}-1-ethoxymethyl-5-fluorouracil] the IC50 (5-FU as substrate, Test Example 4, read-out: IC50 of DPD activity inhibition) was roughly 500 nM, the “DPD Inhibitory Activity: Activity” value (Conc. 0.2 μM, Table 5) was 0.285 nmol/mL/min and the inhibition at 0.2 µM (Conc. 0.2 μM, Table 5, read-out: DPD Inhibitory Activity: Inhibition) was 56.8%. The “DPD Inhibitory Activity: Activity” value (Conc. 2 μM, Table 5) was 0.216 nmol/mL/min, the inhibition at 2 µM (Conc. 2 μM, Table 5, read-out: DPD Inhibitory Activity: Inhibition) was 67.2% and the “DPD Inhibitory Activity: Activity” value (Conc. 20 μM, Table 5) was 0.081 nmol/mL/min. The inhibition at 20 µM (Conc. 20 μM, Table 5) was 87.7%.
